Data reported in the supplement of paper PMC10307832.

Key:
Test in all cases: relative viability (nuclei count vs DMSO), 5 days (fraction); higher = more cells survive
HCC-15 = test system: HCC-15
How it was run: (§1)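 Lung cancer cell lines in 1536-well plates were dosed by pin tool the day after seeding, either with one drug alone or with a fixed anchor-drug dose plus five library-drug doses (not always all listed) in √10 steps. After 5 days, cells were fixed and their nuclei stained in one step (final 0.05% Triton X-100, 1% formaldehyde, 1 ug/ml Hoechst), then counted on 4× images. Relative viability is the nuclei count in treated wells divided by that in vehicle wells. Values are medians of duplicate plates.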

NCI-H1563 = test system: NCI-H1563
How it was run: as §1

COR-L23 = test system: COR-L23
How it was run: as §1

PC-3 [JPC-3] = test system: PC-3 [JPC-3]
How it was run: as §1

NCI-H2228 = test system: NCI-H2228
How it was run: as §1

RERF-LC-KJ = test system: RERF-LC-KJ
How it was run: as §1

EKVX = test system: EKVX
How it was run: as §1

NCI-H1734 = test system: NCI-H1734
How it was run: as §1

LK-2 = test system: LK-2
How it was run: as §1

HCC-827 = test system: HCC-827
How it was run: as §1

PC-14 = test system: PC-14
How it was run: as §1

CAL-12T = test system: CAL-12T
How it was run: as §1

SW 1573 = test system: SW 1573
How it was run: as §1

NCI-H1355 = test system: NCI-H1355
How it was run: as §1

NCI-H661 = test system: NCI-H661
How it was run: as §1

ABC-1 = test system: ABC-1
How it was run: as §1

NCI-H520 = test system: NCI-H520
How it was run: as §1

H3255 = test system: H3255
How it was run: as §1

SK-MES-1 = test system: SK-MES-1
How it was run: as §1

NCI-H2405 = test system: NCI-H2405
How it was run: as §1

NCI-H1437 = test system: NCI-H1437
How it was run: as §1

NCI-H322M = test system: NCI-H322M
How it was run: as §1

NCI-H1650 = test system: NCI-H1650
How it was run: as §1

NCI-H1651 = test system: NCI-H1651
How it was run: as §1

Which results are given for C[C@@H]1CN(CC(=O)Nc2ccc3c(c2)Cc2cccc(-c4cc(=O)cc(N5CCOCC5)o4)c2S3)C[C@H](C)O1 + CCNC(=O)c1noc(-c2cc(C(C)C)c(O)cc2O)c1-c1ccc(CN2CCOCC2)cc1 [Luminespib] (partner 0.01 µM)?
relative viability (HCC-15; first compound 0.04 µM): 0.358; relative viability (HCC-15; first compound 0.1265 µM): 0.282; relative viability (HCC-15; first compound 0.4 µM): 0.284; relative viability (HCC-15; first compound 4 µM): 0.27; relative viability (NCI-H1563; first compound 0.04 µM): 0.512; relative viability (NCI-H1563; first compound 0.1265 µM): 0.514; relative viability (NCI-H1563; first compound 0.4 µM): 0.477; relative viability (NCI-H1563; first compound 4 µM): 0.514; relative viability (COR-L23; first compound 0.04 µM): 0.793; relative viability (COR-L23; first compound 0.1265 µM): 0.705; relative viability (COR-L23; first compound 0.4 µM): 0.729; relative viability (COR-L23; first compound 4 µM): 0.458; relative viability (PC-3 [JPC-3]; first compound 0.04 µM): 0.744; relative viability (PC-3 [JPC-3]; first compound 0.1265 µM): 0.684; relative viability (PC-3 [JPC-3]; first compound 0.4 µM): 0.728; relative viability (PC-3 [JPC-3]; first compound 4 µM): 0.605; relative viability (NCI-H2228; first compound 0.04 µM): 0.15; relative viability (NCI-H2228; first compound 0.1265 µM): 0.128; relative viability (NCI-H2228; first compound 0.4 µM): 0.171; relative viability (NCI-H2228; first compound 4 µM): 0.133; relative viability (RERF-LC-KJ; first compound 0.04 µM): 1.18; relative viability (RERF-LC-KJ; first compound 0.1265 µM): 1.18; relative viability (RERF-LC-KJ; first compound 0.4 µM): 1.19; relative viability (RERF-LC-KJ; first compound 4 µM): 0.709; relative viability (EKVX; first compound 0.04 µM): 0.802; relative viability (EKVX; first compound 0.1265 µM): 0.874; relative viability (EKVX; first compound 0.4 µM): 0.955; relative viability (EKVX; first compound 4 µM): 0.814; relative viability (NCI-H1734; first compound 0.04 µM): 0.264; relative viability (NCI-H1734; first compound 0.1265 µM): 0.212; relative viability (NCI-H1734; first compound 0.4 µM): 0.195; relative viability (NCI-H1734; first compound 4 µM): 0.291; relative viability (LK-2; first compound 0.1265 µM): 0.202; relative viability (LK-2; first compound 0.4 µM): 0.24; relative viability (LK-2; first compound 4 µM): 0.188; relative viability (HCC-827; first compound 0.04 µM): 0.547; relative viability (HCC-827; first compound 0.1265 µM): 0.469; relative viability (HCC-827; first compound 0.4 µM): 0.915; relative viability (HCC-827; first compound 4 µM): 0.681; relative viability (PC-14; first compound 0.04 µM): 0.142; relative viability (PC-14; first compound 0.1265 µM): 0.122; relative viability (PC-14; first compound 0.4 µM): 0.15; relative viability (PC-14; first compound 4 µM): 0.144; relative viability (CAL-12T; first compound 0.04 µM): 0.302; relative viability (CAL-12T; first compound 0.1265 µM): 0.408; relative viability (CAL-12T; first compound 0.4 µM): 0.613; relative viability (CAL-12T; first compound 4 µM): 0.168; relative viability (SW 1573; first compound 0.04 µM): 0.215; relative viability (SW 1573; first compound 0.1265 µM): 0.386; relative viability (SW 1573; first compound 0.4 µM): 0.207; relative viability (SW 1573; first compound 4 µM): 0.366; relative viability (NCI-H1355; first compound 0.04 µM): 0.678; relative viability (NCI-H1355; first compound 0.1265 µM): 0.693; relative viability (NCI-H1355; first compound 0.4 µM): 0.704; relative viability (NCI-H1355; first compound 4 µM): 0.805; relative viability (NCI-H661; first compound 0.04 µM): 0.964; relative viability (NCI-H661; first compound 0.1265 µM): 0.938; relative viability (NCI-H661; first compound 0.4 µM): 0.97; relative viability (NCI-H661; first compound 4 µM): 0.813; relative viability (ABC-1; first compound 0.1265 µM): 0.64; relative viability (ABC-1; first compound 0.4 µM): 0.633; relative viability (ABC-1; first compound 4 µM): 0.521; relative viability (NCI-H520; first compound 0.04 µM): 0.249; relative viability (NCI-H520; first compound 0.1265 µM): 0.256; relative viability (NCI-H520; first compound 0.4 µM): 0.224; relative viability (NCI-H520; first compound 4 µM): 0.221; relative viability (H3255; first compound 0.04 µM): 0.952; relative viability (H3255; first compound 0.1265 µM): 0.767; relative viability (H3255; first compound 0.4 µM): 0.912; relative viability (H3255; first compound 4 µM): 0.881; relative viability (SK-MES-1; first compound 0.04 µM): 0.659; relative viability (SK-MES-1; first compound 0.1265 µM): 0.764; relative viability (SK-MES-1; first compound 0.4 µM): 0.664; relative viability (SK-MES-1; first compound 4 µM): 0.475; relative viability (NCI-H2405; first compound 0.04 µM): 0.648; relative viability (NCI-H2405; first compound 0.1265 µM): 0.744; relative viability (NCI-H2405; first compound 0.4 µM): 0.726; relative viability (NCI-H2405; first compound 4 µM): 0.612; relative viability (NCI-H1437; first compound 0.04 µM): 1.2; relative viability (NCI-H1437; first compound 0.1265 µM): 1.16; relative viability (NCI-H1437; first compound 0.4 µM): 1.22; relative viability (NCI-H1437; first compound 4 µM): 0.891; relative viability (NCI-H322M; first compound 0.04 µM): 0.767; relative viability (NCI-H322M; first compound 0.1265 µM): 0.765; relative viability (NCI-H322M; first compound 0.4 µM): 0.839; relative viability (NCI-H322M; first compound 4 µM): 0.841; relative viability (NCI-H1650; first compound 0.04 µM): 0.212; relative viability (NCI-H1650; first compound 0.1265 µM): 0.23; relative viability (NCI-H1650; first compound 0.4 µM): 0.18; relative viability (NCI-H1650; first compound 4 µM): 0.171; relative viability (NCI-H1651; first compound 0.04 µM): 0.891; relative viability (NCI-H1651; first compound 0.1265 µM): 0.719; relative viability (NCI-H1651; first compound 0.4 µM): 0.885; relative viability (NCI-H1651; first compound 4 µM): 0.634
